Reference: patent US20220117945A1, “ISOXAZOLE CARBOXAMIDE COMPOUNDS AND USES THEREOF” (NOVARTIS AG, priority 2017, published 2022)

What follows are compounds tested on Atoh1 expression in mouse cerebellar neural precursor cells (assay: Atoh1 induction assay in mouse cerebellar neural precursor cells (NPCs), Atoh1-GFP reporter). Conditions: 10 doses 50 μM to 200 nM, 72 hours treatment, DMSO control = 1, more than 5 considered significant, read-out: fold difference (maximum fold difference of GFP average intensity in cell nuclei over the DMSO control).
Assay type: cell-based
Method: Compounds of the present disclosure were assessed for their ability to increase the Atoh1 expression in mouse cerebellar neural precursor cells. The ability of compounds of the present disclosure to induce new hair cell formation was assessed in ex vivo hair cell induction assay using 6-day-postnatal mouse cochlea explants with hair cell damage.
Atoh1 Induction Assay in Mouse Cerebellar Neural Precursor Cells (NPCs)
Atoh1 induction assay was conducted with in vitro cultured cerebellar neural precursor cells isolated from neonatal transgenic Atoh1-GFP mice. Atoh1 expression is mainly regulated by the enhancer, and the nuclear GFP was driven by the cloned enhancer sequence at 3′ of Atoh1 which had high conservation among mammalians. So Atoh1 induction could be reflected by GFP activation in cerebellar neural precursor cells (Helms et al., Development 2000; 127: 1185-1196; Lumpkin et al., Gene Expression Patterns 2003; 3: 389-395). Postnatal 3 days pups were dissected for cerebellum tissue isolation. The cerebellum tissue was cut into small pieces, and dissociated with 0.05% Trypsin for about 10 minutes at 37° C., and then filtered with a 70 uM cell strainer. The cells were cultured as neuropsheres for the first 2 days in ultra-low attachment dish/well-plate with DMEM/F12+1% N2 &2% B27 with 1% P/S, 20 ng/ml rhFGF2 and 20 ng/ml rhEGF (R&D Systems). Then the spheres were plated to the matrigel (1:30 diluted in DMEM/F12)-coated tissue culture dish for monolayer culture. After 4.5-5.5 days culture in vitro (DIV), cells were dissociated with 0.05% trypsin into single cells, and frozen after cell number calculation.
The cerebellar neural precursor cells (NPCs) were re-thawed from stock and cultured for another 2 days before used for Atoh1 induction assay. On the first day of assay, NPCs were seeded into matrigel-coated 384 well plates (Black view-plate, PE) at 2500 cells/well. After over-night culture, the NPCs were treated with representative compounds of the present disclosure with 1:2 serial dilutions for 10 doses, from 50 μM to 200 nM, with DMSO as negative control. After 72 hours treatment without medium change, the cells were fixed with 4% formalin for staining. Assay plates were stained with GFP antibody (Abcam, #13970, 1:1000) to amplify endogenous GFP signal and then read by Cellomics.

Row | SMILES | maximal fold induction
1 | O=C1CCN(CCCCCNC(=O)c2cc(-c3cccs3)on2)C1 [Example 26, N-(5-(3-Oxopyrrolidin-1-yl)pentyl)-5-(thiophen-2-yl)isoxazole-3-carboxamide] | 7.1
2 | CN1CCN(CCCCCNC(=O)c2cc(-c3ccc(F)s3)on2)CC1 [Example 73, 5-(5-Fluorothiophen-2-yl)-N-(5-(4-methylpiperazin-1-yl)pentyl)isoxazole-3-carboxamide] | 19.1
3 | O=C(NCCCCCN1CC(CO)C1)c1cc(-c2ccc(F)cc2)on1 [Example 33] | 26.1
4 | NS(=O)(=O)C1CN(CCCCCNC(=O)c2cc(-c3ccc(F)cc3)on2)C1 [Example 70] | 14
5 | C[C@H]1CN(CCCCCNC(=O)c2cc(-c3cccs3)on2)C[C@H](C)O1 [Example 43] | 21.5
6 | CN(C)C(=O)C1CN(CCCCCNC(=O)c2cc(-c3ccc(F)cc3)on2)C1 [Example 28] | 28.6
7 | N#CCCNC(=O)C1CN(CCCCCNC(=O)c2cc(-c3cccs3)on2)C1 [Example 84, N-(5-(3-((2-Cyanoethyl)carbamoyl)azetidin-1-yl)pentyl)-5-(thiophen-2-yl)isoxazole-3-carboxamide] | 35.1
8 | C[C@@H]1CNCCN1CCCCCNC(=O)c1cc(-c2cccs2)on1 [Example 5, (R)—N-(5-(2-Methylpiperazin-1-yl)pentyl)-5-(thiophen-2-yl)isoxazole-3-carboxamide] | 32.5
9 | N#CCCNC(=O)C1CN(CCCCCNC(=O)c2cc(-c3ccc(F)cc3)on2)C1 [Example 87, N-(5-(3-((2-Cyanoethyl)carbamoyl)azetidin-1-yl)pentyl)-5-(4-fluorophenyl)isoxazole-3-carboxamide] | 27.8
10 | CNC(=O)C1CN(CCCCCNC(=O)c2cc(-c3ccc(F)cc3)on2)C1 [Example 85, 5-(4-Fluorophenyl)-N-(5-(3-(methylcarbamoyl)azetidin-1-yl)pentyl)isoxazole-3-carboxamide] | 20.7
11 | CC(=O)N1CCN(CCCCCNC(=O)c2cc(-c3ccc(F)cc3)on2)CC1 [Example 30] | 13.4
12 | O=C(NCCCCCN1CC(F)C1)c1cc(-c2ccc(F)cc2)on1 [Example 44] | 34.7
13 | CS(=O)(=O)C1CN(CCCCCNC(=O)c2cc(-c3cccs3)on2)C1 [Example 63] | 19.8
14 | CS(=O)(=O)NC1CN(CCCCCNC(=O)c2cc(-c3ccc(F)cc3)on2)C1 [Example 22, 5-(4-Fluorophenyl)-N-(5-(3-(methylsulfonamido)azetidin-1-yl)pentyl)isoxazole-3-carboxamide] | 25.5
15 | O=C(NCCCCCN1CCCC(O)C1)c1cc(-c2cccs2)on1 (centres unmarked) [Example 57] | 15.4
16 | O=C(NCCCCCN1CCNCC1)c1cc(-c2cccs2)on1 [Example 3, N-(5-(Piperazin-1-yl)pentyl)-5-(thiophen-2-yl)isoxazole-3-carboxamide] | 21
17 | N#CC1CN(CCCCCNC(=O)c2cc(-c3ccc(F)cc3)on2)C1 [Example 64] | 36.2
18 | N#CC1CCN(CCCCCNC(=O)c2cc(-c3cccs3)on2)C1 (centres unmarked) [Example 29] | 20.1
19 | NS(=O)(=O)C1CN(CCCCCNC(=O)c2cc(-c3cccs3)on2)C1 [Example 72, N-(5-(3-sulfamoylazetidin-1-yl)pentyl)-5-(thiophen-2-yl)isoxazole-3-carboxamide] | 15.5
20 | N#CCCOC(=O)NC1CN(CCCCCNC(=O)c2cc(-c3cccs3)on2)C1 [Example 21, 2-Cyanoethyl (1-(5-(5-(thiophen-2-yl)isoxazole-3-carboxamido)pentyl)azetidin-3-yl)carbamate] | 13
21 | CN1CCN(CCC(F)(F)CCNC(=O)c2cc(-c3cccs3)on2)CC1 [Example 74, N-(3,3-Difluoro-5-(4-methylpiperazin-1-yl)pentyl)-5-(thiophen-2-yl)isoxazole-3-carboxamide] | 19.4
22 | N#CCNC(=O)C1CN(CCCCCNC(=O)c2cc(-c3cccs3)on2)C1 [Example 77, N-(5-(3-((Cyanomethyl)carbamoyl)azetidin-1-yl)pentyl)-5-(thiophen-2-yl)isoxazole-3-carboxamide] | 24.1
23 | CN(C)C(=O)C1CN(CCCCCNC(=O)c2cc(-c3cccs3)on2)C1 [Example 46] | 18
24 | O=C(NCCCCCN1CC(C(=O)N[C@H]2C[C@@H](O)C2)C1)c1cc(-c2ccc(F)cc2)on1 [Example 92, 5-(4-Fluorophenyl)-N-(5-(3-(((1,3-cis)-3-hydroxycyclobutyl)carbamoyl)azetidin-1-yl)pentyl)isoxazole-3-carboxamide] | 13
25 | O=C(NCCCCCN1CC(C(=O)NC2CC2)C1)c1cc(-c2cccs2)on1 [Example 62] | 26.6
26 | O=C1CN(CCCCCNC(=O)c2cc(-c3cccs3)on2)CCN1 [Example 37] | 13.5
27 | O=C(NCCCCCN1CC(C(=O)N[C@H]2C[C@H](O)C2)C1)c1cc(-c2cccs2)on1 [Example 80, N-(5-(3-(((1,3-trans)-3-Hydroxycyclobutyl)carbamoyl)azetidin-1-yl)pentyl)-5-(thiophen-2-yl)isoxazole-3-carboxamide] | 47.2
28 | O=C(NCCCCCN1CC(C(=O)NC2CCCC2O)C1)c1cc(-c2cccs2)on1 (centres unmarked) [Example 83, N-(5-(3-((2-Hydroxycyclopentyl)carbamoyl)azetidin-1-yl)pentyl)-5-(thiophen-2-yl)isoxazole-3-carboxamide] | 34.4
29 | O=C(NC1CN(CCCCCNC(=O)c2cc(-c3cccs3)on2)C1)OCCO [Example 20, 2-Hydroxyethyl (1-(5-(5-(thiophen-2-yl)isoxazole-3-carboxamido)pentyl)azetidin-3-yl)carbamate] | 29.4
